Results: patent US20240294498A1, “FACTOR XIIA INHIBITORS” (Lunac Therapeutics Ltd, priority 2021, published 2024)

Legend:
Type in all cases: biochemical
FXIIa = target: T1, FXIIa (Homo sapiens, UniProt P00748); assay: Determination of Factor XIIa inhibition (chromogenic substrate S-2302); settings: human FXIIa alpha, Ki category
T1 construct: FXIIa alpha
T1 sequence (P00748 373-615 limits assumed): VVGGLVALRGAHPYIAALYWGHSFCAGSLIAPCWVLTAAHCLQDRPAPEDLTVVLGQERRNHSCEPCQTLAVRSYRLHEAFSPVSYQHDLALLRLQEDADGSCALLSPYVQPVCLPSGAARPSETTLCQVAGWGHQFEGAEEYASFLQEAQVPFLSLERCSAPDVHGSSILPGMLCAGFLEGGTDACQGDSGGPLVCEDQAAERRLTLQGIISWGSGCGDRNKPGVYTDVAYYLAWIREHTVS
T1 sequence (P00748 20-372 partner limits assumed): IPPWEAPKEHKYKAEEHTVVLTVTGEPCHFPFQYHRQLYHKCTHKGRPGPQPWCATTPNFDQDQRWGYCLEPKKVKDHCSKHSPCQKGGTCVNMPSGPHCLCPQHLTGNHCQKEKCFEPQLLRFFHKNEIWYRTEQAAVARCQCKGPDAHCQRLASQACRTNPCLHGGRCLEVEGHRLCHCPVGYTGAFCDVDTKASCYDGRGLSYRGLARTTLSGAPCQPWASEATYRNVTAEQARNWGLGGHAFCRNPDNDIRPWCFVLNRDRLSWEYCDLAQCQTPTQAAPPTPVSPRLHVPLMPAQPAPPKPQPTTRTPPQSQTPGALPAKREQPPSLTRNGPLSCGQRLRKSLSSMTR
Outline: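 Compound preincubated with 10 nM FXIIa for 10 min at 37° C in 50 mM Tris, 137 mM NaCl, pH 7.4, 5% DMSO, top concentration 500 μM; S-2302 added at Km. pNA release followed at 405 nm for 3 h; IC50 from initial rates, converted to Ki via Ki = IC50/(1+[S]/Km).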

FXa = FXa (Homo sapiens, UniProt P00742); assay: Determination of selectivity: FXa inhibition (chromogenic substrate S2765); settings: fold selectivity for FXIIa over FXa (human); category
Outline: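 FXa (5 nM) preincubated with increasing compound (top 500 μM) for 10 mins at 37° C in 50 mM Tris, 137 mM NaCl pH 7.4, 5% DMSO, then S2765 added at its KM. Absorbance at 405 nm followed kinetically for 3 hours; IC50 from initial rates, converted to Ki by Cheng-Prusoff.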

thrombin = target: T2, thrombin (Homo sapiens, UniProt P00734); assay: Determination of selectivity: thrombin inhibition (chromogenic substrate GPR); settings: fold selectivity for FXIIa over thrombin (human); category
T2 construct: FXa (5 nM) and thrombin (5 nM)
Outline: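 Thrombin (5 nM) preincubated with increasing compound concentrations (top 500 μM, 5% DMSO) 10 min at 37 °C in 50 mM Tris, 137 mM NaCl pH 7.4, then GPR chromogenic substrate at its KM. pNA release read kinetically at 405 nm for 3 h at 37 °C. IC50 from initial rates, converted to Ki via Cheng–Prusoff.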

FXa, sequence (P00742 235-488 limits assumed): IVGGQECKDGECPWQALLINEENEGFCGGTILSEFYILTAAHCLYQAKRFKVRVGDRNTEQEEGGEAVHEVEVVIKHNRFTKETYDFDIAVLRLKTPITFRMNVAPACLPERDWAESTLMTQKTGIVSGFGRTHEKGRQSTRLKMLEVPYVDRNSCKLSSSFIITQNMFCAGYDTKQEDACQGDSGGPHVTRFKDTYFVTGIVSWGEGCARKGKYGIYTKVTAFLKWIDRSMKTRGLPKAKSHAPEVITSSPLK
FXa, sequence (P00742 41-179 partner limits assumed): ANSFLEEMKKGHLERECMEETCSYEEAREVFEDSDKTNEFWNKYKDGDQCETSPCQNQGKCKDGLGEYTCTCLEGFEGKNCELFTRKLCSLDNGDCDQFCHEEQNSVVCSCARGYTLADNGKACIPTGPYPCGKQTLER

Row | SMILES | Ki (FXIIa) [nM] | FXa (human)/FXIIa alpha (human) (FXa) | Thrombin (human)/FXIIa alpha (human) (thrombin)
1 | Cc1ccc(C[C@@H]2C[C@@H](C(=O)NCc3ccc4c(cnn4C)c3)N(C(=O)[C@@H]3NCCC[C@@H]3C(=O)N(C)CCN3CC(F)C3)C2)cc1 [Example M06099, (2R,3S)-N-(2-(3-fluoroazetidin-1-yl)ethyl)-N-methyl-2-((2S,4R)-2-(((1-methyl-1H-indazol-5-yl)methyl)carbamoyl)-4-(4-methylbenzyl)pyrrolidine-1-carbonyl)piperidine-3-carboxamide] | < 200 | ∘∘∘ | +++ (fold selectivity values greater than 100)
2 | COCCN1CCC(N(C)C(=O)[C@H]2CCCN[C@H]2C(=O)N2C[C@H](Cc3ccc(C)cc3)C[C@H]2C(=O)NCc2ccc3c(cnn3C)c2)CC1 [Example M06084, (2R,3S)-N-(1-(2-methoxyethyl)piperidin-4-yl)-N-methyl-2-((2S,4R)-2-(((1-methyl-1H-indazol-5-yl)methyl)carbamoyl)-4-(4-methylbenzyl)pyrrolidine-1-carbonyl)piperidine-3-carboxamide] | < 200 | ∘∘∘ | +++ (fold selectivity values greater than 100)
3 | O=C(NCc1cc2cnccc2[nH]1)[C@@H]1C[C@H](C(F)(F)F)CN1C(=O)[C@@H]1NCCC[C@@H]1C(=O)N1CCCC1 [Example M05720, (2S,4S)-N-((1H-pyrrolo[3,2-c]pyridin-2-yl)methyl)-1-((2R,3S)-3-(pyrrolidine-1-carbonyl)piperidine-2-carbonyl)-4-(trifluoromethyl)pyrrolidine-2-carboxamide] | < 200 | ∘∘∘ | +++ (fold selectivity values greater than 100)
4 | Cc1ccc(C[C@@H]2C[C@@H](C(=O)NCc3ccc4c(cnn4C)c3)N(C(=O)[C@@H]3NCCC[C@@H]3C(=O)N3CCC[C@@H]3C(F)(F)F)C2)cc1 [Example M05747, (2S,4R)-N-((1-methyl-1H-indazol-5-yl)methyl)-4-(4-methylbenzyl)-1-((2R,3S)-3-((R)-2-(trifluoromethyl)pyrrolidine-1-carbonyl)piperidine-2-carbonyl)pyrrolidine-2-carboxamide] | < 200 | ∘∘∘ | +++ (fold selectivity values greater than 100)
5 | Cc1ccc(C[C@@H]2C[C@@H](C(=O)NCc3ccc4c(cnn4C)c3)N(C(=O)[C@@H]3NCCC[C@@H]3C(=O)N3CCCCC3)C2)cc1 [Example M05733, (2S,4R)-N-((1-methyl-1H-indazol-5-yl)methyl)-4-(4-methylbenzyl)-1-((2R,3S)-3-(piperidine-1-carbonyl)piperidine-2-carbonyl)pyrrolidine-2-carboxamide] | < 200 | ∘∘∘ | ++ (a fold selectivity value of 10 to 100)
6 | Cc1ccc(C[C@@H]2C[C@@H](C(=O)NCc3ccc4c(cnn4C)c3)N(C(=O)[C@@H]3NCCC[C@@H]3C(=O)N3CC[C@@H](N(C)C)C3)C2)cc1 [Example M06010, (2S,4R)-1-((2R,3S)-3-((R)-3-(dimethylamino)pyrrolidine-1-carbonyl)piperidine-2-carbonyl)-N-((1-methyl-1H-indazol-5-yl)methyl)-4-(4-methylbenzyl)pyrrolidine-2-carboxamide] | 200 to 800 | ∘∘∘ | +++ (fold selectivity values greater than 100)
7 | Cc1ccc(C[C@@H]2C[C@@H](C(=O)NCc3ccn4c(C)nnc4c3)N(C(=O)[C@@H]3NCCC[C@@H]3C(=O)N3CCCC3)C2)cc1 [Example M05855, (2S,4R)-N-((3-methyl-[1,2,4]triazolo[4,3-a]pyridin-7-yl)methyl)-4-(4-methylbenzyl)-1-((2R,3S)-3-(pyrrolidine-1-carbonyl)piperidine-2-carbonyl)pyrrolidine-2-carboxamide] | 200 to 800 | ∘∘∘ | +++ (fold selectivity values greater than 100)
8 | Cc1ccc(C[C@@H]2C[C@@H](C(=O)NCc3ccc4c(c3)nnn4C)N(C(=O)[C@@H]3NCCC[C@@H]3C(=O)N3CCC[C@@H]3C(F)(F)F)C2)s1 [Example M06079, (2S,4S)-N-+(1-methylbenzotriazol-5-yl)methyl+-4-+(5-methyl-2-thienyl)methyl+-1-+(2R,3S)-3-+(2R)-2-(trifluoromethyl)pyrrolidine-1-carbonyl+piperidine-2-carbonyl+pyrrolidine-2-carboxamide] | 200 to 800 | ∘∘∘ | +++ (fold selectivity values greater than 100)
9 | Cc1ccc(C[C@@H]2C[C@@H](C(=O)NCC3CCc4c(cnn4C)C3)N(C(=O)[C@@H]3NCCC[C@@H]3C(=O)N3CCCC3)C2)cc1 (stereo partly drawn) [Example M05874, (2S,4R)-N-((1-methyl-4,5,6,7-tetrahydro-1H-indazol-5-yl)methyl)-4-(4-methylbenzyl)-1-((2R,3S)-3-(pyrrolidine-1-carbonyl)piperidine-2-carbonyl)pyrrolidine-2-carboxamide] | 200 to 800 | ∘∘∘ | +++ (fold selectivity values greater than 100)
10 | Cc1ccc(O[C@@H]2C[C@@H](C(=O)NCc3ccc4c(cnn4C)c3)N(C(=O)[C@@H]3NCCC[C@@H]3C(=O)N3CCCC3)C2)cc1 [Example M05798, (2S,4R)-N-[(1-methylindazol-5-yl)methyl]-4-(4-methylphenoxy)-1-[(2R,3S)-3-(pyrrolidine-1-carbonyl)piperidine-2-carbonyl]pyrrolidine-2-carboxamide] | 800 to 5000 | ∘∘∘ | +++ (fold selectivity values greater than 100)
11 | Cn1ncc2cc(CNC(=O)[C@@H]3C[C@@H](Cc4ccc(C(F)(F)F)cc4)CN3C(=O)[C@@H]3NCCC[C@@H]3C(=O)N3CCCC3)ccc21 [Example M05788, (2S,4R)-N-((1-methyl-1H-indazol-5-yl)methyl)-1-((2R,3S)-3-(pyrrolidine-1-carbonyl)piperidine-2-carbonyl)-4-(4-(trifluoromethyl)benzyl)pyrrolidine-2-carboxamide] | < 200 | ∘∘∘ | +++ (fold selectivity values greater than 100)
12 | Cc1ccc(C[C@@H]2C[C@@H](C(=O)NCc3ccc4c(cnn4C)c3)N(C(=O)[C@@H]3NCCC[C@@H]3C(=O)N(C)C3CCN(C4CC4)CC3)C2)cc1 [Example M06112, (2R,3S)-N-(1-cyclopropylpiperidin-4-yl)-N-methyl-2-((2S,4R)-2-(((1-methyl-1H-indazol-5-yl)methyl)carbamoyl)-4-(4-methylbenzyl)pyrrolidine-1-carbonyl)piperidine-3-carboxamide] | < 200 | ∘∘∘ | +++ (fold selectivity values greater than 100)
13 | Cc1ccc(C[C@@H]2C[C@@H](C(=O)NCc3ccc4c(cnn4C)c3)N(C(=O)[C@@H]3NCCC[C@@H]3C(=O)N3CC[C@@H](F)C3)C2)cc1 [Example M05785, (2S,4R)-1-((2R,3S)-3-((R)-3-fluoropyrrolidine-1-carbonyl)piperidine-2-carbonyl)-N-((1-methyl-1H-indazol-5-yl)methyl)-4-(4-methylbenzyl)pyrrolidine-2-carboxamide] | < 200 | ∘∘∘ | +++ (fold selectivity values greater than 100)
